One assay concerns lamin C. Put plainly: Taqman quantitative real-time PCR of lamin C mRNA in coronary artery endothelial cells of aging mice. The conditions noted are these: 56-week-old mice treated with EGT every day, compared to without EGT treated; FIG. 1. The class given is in vivo.
The next assay deals with lamin A. Put plainly: Taqman quantitative real-time PCR of lamin A mRNA in coronary artery endothelial cells of aging mice. The format is in vivo. The conditions noted are these: 56-week-old mice treated with EGT every day, compared to without EGT treated; FIG. 1. The method, then:
(§1) 18 […]/6 male mice aged about 8 weeks, were randomly assigned to three study groups (GA, GB, GC). The total experimental time was 56 weeks, and the control group was consisted of 12 animals, and all of the animals were maintained in an animal facility room under controlled environmental conditions (22±1° C., 12 h-light/12 h dark cycle, free access to food and water). All procedures were carried out in accordance with institutional policies on experimental animal handling. Treatment details of the individual study groups were: Group A (GA): euthanized at the age of 10 weeks; Group B (GB): euthanized at the age of 56 weeks without EGT treated; Group C (GC): euthanized at the age of 56 weeks with EGT treated every day. For all the euthanized mice, formalin-fixed paraffin embedded 3 μm sections were prepared from the tissues of coronary artery, and were snap-frozen and stored at -80° C. Taqman quantitative real-time PCR was used for detection of progerin mRNA. Messenger RNA was extracted using RNeasy Mini Kit Plus (Qiagen, Valencia, CA). The Taqman probe was as described by Rodriguez et al. (Rodriguez, S., et al., Increased expression of the Hutchinson Gilford progeria syndrome truncated lamin A transcript during cell aging. 2009. 17(7): p. 928-937). The forward primer was [NT] ID NO: 1), and the reverse primer was [NT] ID NO: 2).
A general note: Real-time PCR tracks product formation cycle by cycle.

Assay [1] has as its system pro-inflammatory cytokines IL-1α, IL-1β, IL-6, and TNF-α. Put plainly: Quantification of pro-inflammatory cytokines in serum of aging mice using ELISA Array kit. The format is in vivo. The conditions noted are these: serum of 56-week-old mice, EGT compared to without EGT treatment, FIG. 2. The method, then: 18 […]/6 male mice aged about 8 weeks, were randomly assigned to three study groups (GA, GB, GC). The total experimental time was 56 weeks, and the control group was consisted of 12 animals, and all of the animals were maintained in an animal facility room under controlled environmental conditions (22±1° C., 12 h-light/12 h dark cycle, free access to food and water). All procedures were carried out in accordance with institutional policies on experimental animal handling. Treatment details of the individual study groups were: Group A (GA): euthanized at the age of 10 weeks; Group B (GB): euthanized at the age of 56 weeks without EGT treated; Group C (GC): euthanized at the age of 56 weeks with EGT treated every day.
On the technique in general: ELISA stands for enzyme-linked immunosorbent assay.

Assay [2] deals with vascular and intracellular adhesion molecules in endothelial cells. As to conditions: Anticoli et al. 2010; cited from earlier work.
A further assay relates to progerin. Put plainly: Taqman quantitative real-time PCR of progerin mRNA in coronary artery endothelial cells of aging mice. The class given is in vivo. As to conditions: 56-week-old mice treated with EGT every day, compared to without EGT treated; FIG. 1. The method, then:
as §1

As to `C[N+](C)(C)[C@@H](Cc1c[nH]c(=S)[nH]1)C(=O)[O-]` [EGT, Ergothioneine], the “mRNA of lamin C in coronary artery endothelial cells” value in the assay with lamin C was “decrease”. In the assay on lamin A, the “mRNA of lamin A in coronary artery endothelial cells” value is on record as “decrease”. The “pro-inflammatory cytokines (IL-1α, IL-1β, IL-6, TNF-α)” value in assay [1] is listed as “obvious decrease”. For the same compound, the “IL-1β-induced expression of vascular and intracellular adhesion molecules” value in assay [2] is reported as “inhibit”. Besides, in the assay with progerin, the “mRNA expression of progerin in coronary artery endothelial cells” value is listed as “obvious decrease”.

(Values after patent US20250360105A1, “USE OF ERGOTHIONEINE FOR ANTI-AGING” (NANJING NUTRABUILDING BIO-TECH CO., LTD., priority 2022, published 2025).)
